Results from ChEMBL document CHEMBL1201862, “PubChem BioAssay data set” (2004).
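96-well plates; 48 h exposure; 5 concentrations. Endpoints by linear interpolation between flanking doses. Not reached: highest tested concentration assigned. GI50: concentration for 50% inhibition of growth.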 Calls of active or inactive are those of the source. Rule as the data show it: active = GI50 up to about 1.1 µM and inactive = higher.

Assays:
Experiment in all cases: growth of human tumour cells (NCI), 48 h
OVCAR-4 = tested on: OVCAR-4
SK-MEL-2 = tested on: SK-MEL-2
K562 = tested on: K562
ACHN = tested on: ACHN
SNB-75 = tested on: SNB-75
SK-OV-3 = tested on: SK-OV-3
Malme-3M = tested on: Malme-3M
SR = tested on: SR
RXF 393 = tested on: RXF 393
SN12C = tested on: SN12C
CAKI-1 = tested on: CAKI-1
NCI-H522 = tested on: NCI-H522
EKVX = tested on: EKVX
NCI-H460 = tested on: NCI-H460
SK-MEL-28 = tested on: SK-MEL-28
HOP-62 = tested on: HOP-62
U-251 = tested on: U-251
COLO 205 = tested on: COLO 205
DU-145 = tested on: DU-145

Measured: GI50

Nc1ccn([C@@H]2C[C@H](CO)[C@@H](O)[C@H]2O)c(=O)n1
inactive: OVCAR-4 > 57.7 µM | SK-MEL-2 > 57.7 µM | K562 > 57.7 µM | ACHN > 57.7 µM | SNB-75 > 57.7 µM | SK-OV-3 > 57.7 µM | Malme-3M > 57.7 µM | SR > 57.7 µM | RXF 393 > 57.7 µM | SN12C > 57.7 µM | CAKI-1 > 57.7 µM | NCI-H522 > 57.7 µM | EKVX > 57.7 µM | NCI-H460 > 57.7 µM | SK-MEL-28 > 57.7 µM | HOP-62 > 57.7 µM | U-251 > 57.7 µM | COLO 205 > 57.7 µM

COc1ccc2c(c1)CCc1c-2nc2cc3c(cc2c1O)OCO3
inactive: OVCAR-4 > 100 µM | SK-MEL-2 > 100 µM | K562 > 100 µM | ACHN > 100 µM | SNB-75 > 100 µM | SK-OV-3 > 100 µM | Malme-3M > 100 µM | SR > 100 µM | RXF 393 > 100 µM | SN12C > 100 µM | CAKI-1 > 100 µM | NCI-H522 > 100 µM | EKVX > 100 µM | NCI-H460 > 100 µM | SK-MEL-28 > 100 µM | HOP-62 > 100 µM | U-251 > 100 µM | COLO 205 > 100 µM

O=c1c(-c2ccccc2)c(O)nc2[nH]c3ccccc3n12
inactive: OVCAR-4 > 100 µM | SK-MEL-2 > 100 µM | K562 > 100 µM | ACHN > 100 µM | SNB-75 > 100 µM | SK-OV-3 > 100 µM | Malme-3M > 100 µM | SR 68.1 µM | RXF 393 > 100 µM | SN12C > 100 µM | CAKI-1 > 100 µM | NCI-H522 > 100 µM | EKVX > 100 µM | NCI-H460 > 100 µM | SK-MEL-28 > 100 µM | HOP-62 > 100 µM | U-251 > 100 µM | COLO 205 > 100 µM

C[C@]12CCC(=O)O[C@H]1CCCCO2
inactive: DU-145 > 100 µM | SK-MEL-2 > 100 µM | K562 > 100 µM | SNB-75 87.5 µM | SK-OV-3 > 100 µM | Malme-3M > 100 µM | SR > 100 µM | RXF 393 > 100 µM | SN12C > 100 µM | CAKI-1 > 100 µM | NCI-H522 > 100 µM | EKVX > 100 µM | NCI-H460 > 100 µM | SK-MEL-28 > 100 µM | HOP-62 > 100 µM | U-251 > 100 µM | COLO 205 > 100 µM

COc1ccc(OC)c2[s+]snc12
inactive: OVCAR-4 60.4 µM | SK-MEL-2 33.8 µM | K562 34.5 µM | ACHN 91.2 µM | SNB-75 93.5 µM | SK-OV-3 > 100 µM | Malme-3M > 100 µM | SR 64.9 µM | RXF 393 72.4 µM | SN12C > 100 µM | CAKI-1 > 100 µM | NCI-H522 47.8 µM | EKVX > 100 µM | NCI-H460 36.6 µM | SK-MEL-28 83.8 µM | HOP-62 > 100 µM | U-251 28 µM | COLO 205 > 100 µM

O=C(NC12CC3CC(CC(C3)C1)C2)C(=O)c1c[nH]c2ccc(Br)cc12
inactive: OVCAR-4 14 µM | SK-MEL-2 56.9 µM | K562 8.39 µM | ACHN 15.6 µM | SNB-75 12.6 µM | SK-OV-3 25.9 µM | Malme-3M 17.9 µM | SR 10 µM | RXF 393 2.43 µM | SN12C 18.5 µM | CAKI-1 39.3 µM | NCI-H522 56 µM | EKVX 73.1 µM | NCI-H460 10.2 µM | SK-MEL-28 43.1 µM | HOP-62 7.06 µM | U-251 12.1 µM | COLO 205 18.6 µM

COc1ccc(N[S+]([O-])c2cccc(C)c2)cc1 (stereo not drawn)
inactive: DU-145 > 100 µM | K562 9.73 µM | ACHN 7.76 µM | SNB-75 > 100 µM | Malme-3M 75.5 µM | SR 35.9 µM | RXF 393 54.5 µM | SN12C > 100 µM | CAKI-1 98.6 µM | NCI-H522 8.59 µM | EKVX 12.2 µM | NCI-H460 30 µM | SK-MEL-28 33 µM | HOP-62 64 µM | U-251 79.1 µM | COLO 205 59.6 µM

COc1ccc(OCC(=O)O)c2c1CCCC2=O
inactive: OVCAR-4 > 100 µM | SK-MEL-2 > 100 µM | K562 > 100 µM | ACHN > 100 µM | SNB-75 62.8 µM | SK-OV-3 > 100 µM | Malme-3M > 100 µM | SR > 100 µM | RXF 393 > 100 µM | SN12C > 100 µM | NCI-H522 > 100 µM | EKVX > 100 µM | NCI-H460 > 100 µM | SK-MEL-28 > 100 µM | HOP-62 > 100 µM | U-251 > 100 µM | COLO 205 > 100 µM

CCOC(=O)/C(=C\n1c(=O)sc2ccccc21)C(=O)c1ccccc1
inactive: OVCAR-4 > 100 µM | DU-145 > 100 µM | SK-MEL-2 > 100 µM | K562 44.3 µM | ACHN > 100 µM | SNB-75 53.8 µM | SK-OV-3 > 100 µM | Malme-3M > 100 µM | SR 58.7 µM | RXF 393 > 100 µM | SN12C > 100 µM | CAKI-1 25.4 µM | NCI-H522 48 µM | EKVX > 100 µM | NCI-H460 > 100 µM | SK-MEL-28 > 100 µM | HOP-62 > 100 µM | U-251 > 100 µM | COLO 205 > 100 µM

COC(=O)C12C3C4C5C3(C#N)C1C5(C(=O)OC)C42C(=O)N(C(C)C)C(C)C (stereo not drawn)
inactive: OVCAR-4 > 100 µM | SK-MEL-2 > 100 µM | K562 > 49.4 µM | ACHN > 100 µM | SNB-75 > 100 µM | SK-OV-3 > 100 µM | Malme-3M > 100 µM | SR 13.9 µM | RXF 393 > 100 µM | SN12C > 100 µM | CAKI-1 > 100 µM | NCI-H522 > 33.4 µM | EKVX > 100 µM | NCI-H460 > 57.5 µM | SK-MEL-28 > 100 µM | HOP-62 > 100 µM | U-251 > 78 µM | COLO 205 > 60.4 µM

Cc1ccc(S(=O)(=O)N(CC(O)COc2ccccc2)c2c(F)cccc2F)cc1 (stereo not drawn)
inactive: OVCAR-4 13.2 µM | DU-145 24.9 µM | SK-MEL-2 16.6 µM | K562 37.3 µM | ACHN 17.3 µM | SNB-75 18.9 µM | SK-OV-3 18.5 µM | Malme-3M 21 µM | SR 21.8 µM | RXF 393 10.5 µM | SN12C 21.1 µM | CAKI-1 14.3 µM | EKVX 23.3 µM | NCI-H460 15.1 µM | SK-MEL-28 16.3 µM | HOP-62 19.2 µM | U-251 15.7 µM | COLO 205 14.7 µM

OC(CCNCc1ccccc1)c1ccc2ccccc2c1 (stereo not drawn)
inactive: OVCAR-4 28.4 µM | DU-145 18.3 µM | SK-MEL-2 20.5 µM | K562 21.6 µM | ACHN 18.3 µM | SNB-75 28.2 µM | Malme-3M 22 µM | SR 35.6 µM | RXF 393 16.7 µM | SN12C 29.1 µM | CAKI-1 21.8 µM | NCI-H522 18.7 µM | EKVX 34.8 µM | NCI-H460 17.3 µM | SK-MEL-28 18.4 µM | HOP-62 19.3 µM | U-251 16.9 µM | COLO 205 20.7 µM

CN(C)C(=S)/N=c1\ss/c(=N\C(=S)N(C)C)n1-c1ccc(Cl)c(Cl)c1
inactive: OVCAR-4 > 100 µM | SK-MEL-2 > 100 µM | K562 > 100 µM | ACHN > 100 µM | SNB-75 27.1 µM | SK-OV-3 > 100 µM | Malme-3M > 100 µM | SR > 100 µM | RXF 393 89.9 µM | SN12C > 100 µM | CAKI-1 > 100 µM | NCI-H522 > 100 µM | EKVX > 100 µM | NCI-H460 > 100 µM | SK-MEL-28 > 100 µM | HOP-62 40.6 µM | U-251 > 100 µM | COLO 205 > 100 µM

NCCCCN(CCCN)/[N+]([O-])=N\O
inactive: OVCAR-4 > 100 µM | SK-MEL-2 > 100 µM | K562 > 100 µM | ACHN > 100 µM | SNB-75 > 100 µM | SK-OV-3 > 100 µM | Malme-3M > 100 µM | SR > 100 µM | RXF 393 > 100 µM | SN12C > 100 µM | CAKI-1 > 100 µM | NCI-H522 > 100 µM | NCI-H460 > 100 µM | SK-MEL-28 > 100 µM | HOP-62 > 100 µM | U-251 > 100 µM | COLO 205 > 100 µM

COC(=O)/C=C/C1C2C3(CCC(C)C12C)OCCS3 (stereo not drawn)
inactive: OVCAR-4 > 100 µM | SK-MEL-2 > 100 µM | K562 > 100 µM | ACHN > 100 µM | SNB-75 > 100 µM | SK-OV-3 > 100 µM | Malme-3M > 100 µM | SR 43.1 µM | RXF 393 > 100 µM | SN12C > 100 µM | NCI-H522 > 100 µM | EKVX > 100 µM | NCI-H460 > 100 µM | SK-MEL-28 > 100 µM | HOP-62 > 100 µM | U-251 > 100 µM | COLO 205 > 100 µM

CCN(CC)CCNc1ccc2nnn3c4ccccc4c(=O)c1c23
inactive: OVCAR-4 3.51 µM | SK-MEL-2 6.85 µM | K562 2.97 µM | ACHN 3.24 µM | SNB-75 3.6 µM | SK-OV-3 17.4 µM | Malme-3M 4.01 µM | SR 1.15 µM | RXF 393 6.21 µM | SN12C 4.41 µM | CAKI-1 3.15 µM | NCI-H522 4.75 µM | EKVX 4.13 µM | NCI-H460 2.25 µM | SK-MEL-28 4.65 µM | HOP-62 4.18 µM | U-251 3.27 µM | COLO 205 3.55 µM
